US20240336977A1, “MICRORNA-REGULATED BIOMARKERS AND DRUG TARGETS FOR IMPROVING DIAGNOSIS AND TREATMENT OF LUNG OR BREAST CANCER” (West Virginia University Board of Governors on behalf of …, priority 2023, published 2024)

Columns and labels:
[1] = test system: human NSCLC cell lines; assay: PRISM drug response (IC50/EC50) in CCLE NSCLC cell lines; type: cell-based; conditions: average across CCLE human NSCLC cell lines, PRISM data
From the text: Drug Response. The PRISM (Profiling Relative Inhibition Simultaneously in Mixtures) framework [Corsello, S. M., et al., Discovering the anti-cancer potential of non-oncology drugs by systematic viability profiling. […] 235-248] is a computational tool that estimates drug sensitivities of cancer cell lines using molecular profiling data, particularly gene expression data from the CCLE database. It was obtained the PRISM repurposing dataset of the secondary screen from DepMap release PRISM Repur-posing 19Q4 (https://depmap.org/portal/download/all/, accessed on 25 Jan. 2023). For this study, the PRISM drug response data was used from 94 NSCLC cell lines for 1,448 compounds to investigate the drug sensitivity of specific genes.

[2] = test system: HCC1143; assay: Drug sensitivity categorisation of breast cancer cell line HCC1143; type: cell-based, human; conditions: TNBC cell line HCC1143; categorised from IC50, ln(IC50), EC50, ln(EC50)
From the text: (§1) Drug Sensitivity Data of Breast Cancer Cell Lines The drug sensitivity data of breast cancer cell lines were obtained from two distinct sources. The first source was the Profiling Relative Inhibition Simultaneously in Mixtures (PRISM) [Corsello, S. M.; Nagari, R. T.; Spangler, R. D.; Rossen, J.; Kocak, M.; Bryan, J. G.; Humeidi, R.; Peck, D.; Wu, X.; Tang, A. A.; et al. Discovering the anti-cancer potential of non-oncology drugs by systematic viability profiling. Nature cancer 2020, 1, 235-248, doi:10.1038/s43018-019-0018-6] secondary screen data, which was provided in the DepMap 19Q4 data release (https://depmap.org/portal, accessed on 23 May 2023). The second source encompassed the Genomics of Drug Sensitivity in Cancer (GDSC1 and GDSC2) datasets [Yang, W.; Soares, J.; Greninger, P.; Edelman, E. J.; Lightfoot, H.; Forbes, S.; Bindal, N.; Beare, D.; Smith, J. A.; Thompson, I. R.; et al. Genomics of Drug Sensitivity in Cancer (GDSC): a resource for therapeutic biomarker discovery in cancer cells. Nucleic acids research 2013, 41, D955-961, doi:10.1093/nar/gksllll, Iorio, F.; Knijnenburg, T. A.; Vis, D. J.; Bignell, G. R.; Menden, M. P.; Schubert, M.; Aben, N.; Goncalves, E.; Barthorpe, S.; Lightfoot, H.; et al. A Landscape of Pharmacogenomic Interactions in Cancer. Cell 2016, 166, 740-754, doi:10.1016/j.cell.2016.06.017, Garnett, M. J.; Edelman, E. J.; Heidorn, S. J.; Greenman, C. D.; Dastur, A.; Lau, K. W.; Greninger, P.; Thompson, I. R.; Luo, X.; Soares, J.; et al. Systematic identification of genomic markers of drug sensitivity in cancer cells. Nature 2012, 483, 570-575, doi:10.1038/nature11005], which were made available through CancerRxGene (https://www.cancerrxgene.org/, accessed on 25 May 2023). In this study, we examined drug sensitivity using various measurements, including IC50, ln(IC50), EC50, and ln(EC50). Further details regarding the categorization of drug sensitivity and resistance can be found in our previous work [Ye, Q.; Mohamed, R.; Dukhlallah, D.; Gencheva, M.; Hu, G.; Pearce, M. C.; Kolluri, S. K.; Marsh, C. B.; Eubank, T. D.; Ivanov, A. V.; et al. Molecular Analysis of ZNF71 KRAB in Non-Small-Cell Lung Cancer. International journal of molecular sciences 2021, 22, doi:10.3390/ijms22073752, Ye, Q.; Singh, S.; Qian, P. R.; Guo, N. L. Immune-Omics Networks of CD27, PD1, and PDL1 in Non-Small Cell Lung Cancer. Cancers (Basel) 2021, 13, doi:10.3390/cancers13174296].
(§2) For drug sensitivity analysis, we classified the breast cancer cell lines as sensitive or resistant to each drug based on the measurements of IC50, ln(IC50), EC50, and ln(EC50), following the classification method described in our previous publications. Both mRNA and protein expression levels were considered in determining the association with drug sensitivity.

[3] = test system: HCC38; assay: Drug sensitivity (PRISM) of breast cancer cell line HCC38; type: cell-based, human; conditions: TNBC cell line HCC38; categorised from IC50, ln(IC50), EC50, ln(EC50)
From the text: as §1, §2
(§3) Drug Sensitivity in CCLE. This study used drug sensitivity data of human breast cancer cell lines from various sources. The DepMap portal provided the secondary Profiling Relative Inhibition Simultaneously in Mixtures (PRISM) [Corsello, S. M.; Nagari, R. T.; Spangler, R. D.; Rossen, J.; Kocak, M.; Bryan, J. G.; Humeidi, R.; Peck, D.; Wu, X.; Tang, A. A.; et al. Discovering the anti-cancer potential of non-oncology drugs by systematic viability profiling. Nat. Cancer 2020, 1, 235-248. https://doi.org/10.1038/s43018-019-0018-6] repurposing dataset (PRISM repurposing 19Q4, accessed on 3 Apr. 2023), which includes screening results of 1447 compounds in 22 human breast cancer cell lines. Additionally, we downloaded the Genomics of Drug Sensitivity in Cancer (GDSC1 and GDSC2) datasets [Yang, W.; Soares, J.; Greninger, P.; Edelman, E. J.; Lightfoot, H.; Forbes, S.; Bindal, N.; Beare, D.; Smith, J. A.; Thompson, I. R.; et al. Genomics of Drug Sensitivity in Cancer (GDSC): A resource for therapeutic biomarker discovery in cancer cells. […]

[4] = test system: advanced solid tumors; conditions: Phase I, cited from earlier work
[5] = test system: HCC1806; assay: Drug sensitivity categorisation of breast cancer cell line HCC1806; type: cell-based, human; conditions: TNBC cell line HCC1806; categorised from IC50, ln(IC50), EC50, ln(EC50)
From the text: as §1, §2

[6] = test system: HCC1937; assay: Drug sensitivity (PRISM) of breast cancer cell line HCC1937; type: cell-based, human; conditions: TNBC cell line HCC1937; categorised from IC50, ln(IC50), EC50, ln(EC50)
From the text: as §1, §2, §3

[7] = test system: MCF7 cells; assay: Drug sensitivity categorisation of breast cancer cell line MCF7; type: cell-based, human; conditions: Luminal A MCF7 cells; categorised from IC50, ln(IC50), EC50, ln(EC50)
From the text: as §1, §2

[8] = test system: T47D breast cancer cells; conditions: cited from earlier work
[9] = Phase I clinical trials; cited from earlier work
[10] = Phase II clinical studies; cited from earlier work
[11] = patients with advanced solid tumors

SMILES: O=C(Nc1cccc(Nc2ncc(Br)c(NCCc3cnc[nH]3)n2)c1)N1CCCC1 [BX-912]
- averaged IC50 and EC50 [1]: low

SMILES: c1ccc2c(CCNc3ccc(Nc4ccncc4)cc3)c[nH]c2c1 [serdemetan]
- cell line sensitive or resistant to drug [2]: sensitive
- cell line sensitive or resistant to drug [3]: sensitive
- tumor response ([4]; a breast cancer patient): partial response
- QTc liability [4, 11]: exposure-related QTc liability
- tolerability [4, 11]: well tolerated

SMILES: C(#CCN1CCCC1)CN1CCCC1 [tremorine]
- cell line sensitive or resistant to drug [2]: sensitive
- cell line sensitive or resistant to drug [5]: sensitive
- cell line sensitive or resistant to drug [6]: sensitive
- cell line sensitive or resistant to drug [3]: sensitive

SMILES: Cc1cn(-c2cc(NC(=O)c3ccc(C)c(Nc4nccc(-c5cccnc5)n4)c3)cc(C(F)(F)F)c2)cn1 [nilotinib]
- cell line sensitive or resistant to drug [2]: resistant
- cell line sensitive or resistant to drug [5]: sensitive
- cell line sensitive or resistant to drug [6]: resistant
- cell line sensitive or resistant to drug [3]: resistant

SMILES: CNC(=O)c1cc(Oc2ccc(NC(=O)Nc3ccc(Cl)c(C(F)(F)F)c3)cc2)ccn1 [sorafenib]
- cell line sensitive or resistant to drug [5]: sensitive
- cell line sensitive or resistant to drug [3]: sensitive

SMILES: COc1cccc(-c2cc(=O)c3ccccc3o2)c1N [PD98059]
- cell line sensitive or resistant to drug [5]: sensitive
- cell line sensitive or resistant to drug [6]: resistant
- cell line sensitive or resistant to drug [3]: sensitive
- cell line sensitive or resistant to drug [7]: sensitive
- ERK phosphorylation response to MEK inhibition [8]: resistance

SMILES: Cc1cc(I)ccc1Nc1c(C(=O)NOCC2CC2)cc(F)c(F)c1F [PD198306]
- cell line sensitive or resistant to drug [2]: sensitive
- cell line sensitive or resistant to drug [5]: sensitive
- cell line sensitive or resistant to drug [6]: resistant
- cell line sensitive or resistant to drug [3]: resistant
- cell line sensitive or resistant to drug [7]: sensitive
- ERK phosphorylation response to MEK inhibition [8]: resistance

SMILES: COc1cccc2c1C(=O)c1c(O)c3c(c(O)c1C2=O)C[C@@](O)(C(C)=O)C[C@@H]3O[C@H]1C[C@H](N)[C@H](O)[C@H](C)O1 [daunorubicin]
- averaged IC50 and EC50 [1]: low

SMILES: Cc1cnc(Nc2ccc(OCCN3CCCC3)cc2)nc1Nc1cccc(S(=O)(=O)NC(C)(C)C)c1 [TG101348]
- cell line sensitive or resistant to drug [5]: sensitive
- cell line sensitive or resistant to drug [6]: sensitive
- cell line sensitive or resistant to drug [7]: sensitive

SMILES: C[C@@H](N)[C@H]1CC[C@H](C(=O)Nc2ccncc2)CC1 [Y-27632]
- cell line sensitive or resistant to drug [2]: sensitive
- cell line sensitive or resistant to drug [5]: sensitive
- cell line sensitive or resistant to drug [3]: sensitive

SMILES: O=C(NOCC1CC1)c1ccc(F)c(F)c1Nc1ccc(I)cc1Cl [PD184352]
- cell line sensitive or resistant to drug [2]: sensitive
- cell line sensitive or resistant to drug [3]: resistant
- cell line sensitive or resistant to drug [7]: sensitive
- tolerability [9]: well tolerated
- efficacy [10]: insufficient efficacy

SMILES: O=C(NC[C@H](O)CO)c1ccncc1Nc1ccc(I)cc1F [AS703026]
- cell line sensitive or resistant to drug [5]: resistant
- cell line sensitive or resistant to drug [6]: resistant

SMILES: OCc1ccc(-c2ccc(-c3ccc(CO)s3)o2)s1 [RITA]
- cell line sensitive or resistant to drug [2]: sensitive
- cell line sensitive or resistant to drug [5]: sensitive
- cell line sensitive or resistant to drug [6]: sensitive
- cell line sensitive or resistant to drug [3]: sensitive
- cell line sensitive or resistant to drug [7]: sensitive

SMILES: CC[C@@H]1C(=O)OC[C@@H]1Cc1cncn1C [pilocarpine]
- cell line sensitive or resistant to drug [2]: sensitive
- cell line sensitive or resistant to drug [5]: sensitive
- cell line sensitive or resistant to drug [6]: sensitive
- cell line sensitive or resistant to drug [3]: sensitive

SMILES: O=C(NOC[C@H](O)CO)c1ccc(F)c(F)c1Nc1ccc(I)cc1F [PD0325901]
- cell line sensitive or resistant to drug [2]: sensitive
- cell line sensitive or resistant to drug [5]: sensitive
- cell line sensitive or resistant to drug [6]: resistant
- cell line sensitive or resistant to drug [3]: resistant
- cell line sensitive or resistant to drug [7]: resistant

SMILES: N#CC(=C(/N)Sc1ccccc1N)/C(C#N)=C(\N)Sc1ccccc1N [U0126]
- cell line sensitive or resistant to drug [7]: sensitive
- ERK phosphorylation response to MEK inhibition [8]: resistance

SMILES: N#C/C(=C(/N)Sc1ccc(N)cc1)c1ccccc1C(F)(F)F [BRD-K12244279]
- cell line sensitive or resistant to drug [7]: resistant
